Data from patent publication US6689767B2, “Triterpenes having antibacterial activity” (Regents of the University of Minnesota, priority 2000, dated 2004).
Values after ≈ are worked out from the molar mass of the structure shown.

Legend:
[1] = system: Bacillus subtilis; assay: Kirby-Bauer disk diffusion growth inhibition, Bacillus subtilis; assay type: cell-based; conditions: 10 mg/ml in DMSO, 100 μl on 10 mm disk, 18 hours 37° C.
How it was run: (§1)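 Bacteria grown 18 h at 37 °C in nutrient broth, 0.5 ml swabbed onto Mueller-Hinton agar; 10 mm disks loaded with 100 μl compound in DMSO or water (additional compounds at 10 mg/ml in DMSO). Inhibition zones measured after 18 h at 37 °C, in triplicate.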

[2] = system: Staphylococcus aureus; assay: Kirby-Bauer disk diffusion growth inhibition, Staphylococcus aureus; assay type: cell-based; conditions: for Zone of inhibition Staphylococcus aureus: 100 μl on 10 mm disk, 18 hours 37° C.; for Active against: Table 1 summary, S. aureus; for effectiveness against S. aureus: Tables 1a and 1b
How it was run: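 S. aureus broth culture (18 h, 37 °C) spread on Mueller-Hinton agar; 10 mm disks carrying 100 μl compound solution in DMSO or water, one set at 10 mg/ml in DMSO. Inhibition zones measured after 18 h at 37 °C, in triplicate.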

[3] = system: S. aureus; assay: Minimum inhibitory concentration in tryptic soy broth, S. aureus; assay type: cell-based, Staphylococcus aureus; conditions: 24 hours 37° C., turbidity
Procedure: (§2) Sterile tryptic soy broth was prepared according to the manufacturer's instructions (Difco Lab, Michigan). To each tube containing 7 ml of broth, test compounds dissolved in DMSO were added at different concentrations in triplicate. The tubes were incubated for 24 hours at 37° C. and then turbidity was measured using a […]. The colorimeter was calibrated with sterile broth. The MIC was the lowest concentration that could prevent an increase in turbidity.

[4] = system: Escherichia coli; assay: Kirby-Bauer disk diffusion growth inhibition, Escherichia coli; assay type: cell-based; conditions: 10 mg/ml in DMSO, 100 μl on 10 mm disk, 18 hours 37° C.
How it was run: as §1

[5] = system: methicillin-resistant Staphylococcus aureus; assay: Growth inhibition of methicillin-resistant Staphylococcus aureus; assay type: cell-based
Procedure: The compounds disclosed herein were tested for growth inhibition against four strains of bacteria: Escherichia coli, Staphylococcus aureus, methicillin-resistant Staphylococcus aureus, and Bacillus subtilis. […] They represent […]. E. coli is a gram-negative, non-spore forming, rod-shaped, opportunistic pathogen that resides in the human digestive tract. S. aureus is a gram positive coccus, is usually found morphologically as a […], and is an opportunistic human pathogen, often residing on or in the skin. B. subtilis is a gram positive spore-forming rod. Its native environment is the soil. The chemicals were tested for growth-inhibition of the bacteria by the Kirby-Bauer method. See, e.g., Microbiology, third edition; Lansing M. Prescott, John P. Harley, and Donald A. Klein; Wm. C. Brown Publishers.
Mueller-Hinton agar (Difco Lab, Michigan) was prepared according to the manufacturer's directions, and 20 ml was dispensed in each sterile petri dish. Sterile nutrient broth (Difco Lab, Michigan) was also prepared according to the manufacturer's directions.
Bacteria were grown in liquid nutrient broth for 18 hours at 37° C. until they were turbid.
An aliquot of 0.5 ml of cultured bacteria was aseptically transferred to the surface of a Mueller-Hinton agar plat, and spread using a cotton-tipped swab. […]
The zones of inhibition were measured after 18 hours growth at 37° C. […]

[6] = system: methicillin resistant S. aureus; assay: Minimum inhibitory concentration in tryptic soy broth, methicillin resistant S. aureus; assay type: cell-based, Staphylococcus aureus; conditions: 24 hours 37° C., turbidity
Procedure: as §2

[7] = system: bacteria; assay: Summary statements over the antibacterial assays above; assay type: cell-based; conditions: summary list

Compound	Zone of inhibition Bacillus subtilis [1] [mm]	Zone of inhibition Staphylococcus aureus ([2]; 10 mg/ml in DMSO) [mm]	Active against [2]	effectiveness against S. aureus [2]	amount applied to the disk that inhibited S. aureus ([2]; disk diffusion assay, laboratory strain (not methicillin resistant)) [ng]	effectiveness against S. aureus compared with streptomycin ([2]; laboratory strain (not methicillin resistant))	minimum inhibitory concentration [3] [µM]	Zone of inhibition Escherichia coli [4] [mm]	effectiveness against methicillin resistant S. aureus [5]	Active against ([5]; Table 1 summary, S. aureus methicillin resistant)	MIC [6] [µM]	sensitivity of S. aureus ([2]; Example 34, 10 mg/ml in DMSO)	active against at least one strain of bacteria in the assays above [7]
C=C(C)[C@@H]1CC[C@]2(COC(=O)/C=C\C(=O)O)CC[C@]3(C)[C@H](CC[C@@H]4[C@@]5(C)CC[C@H](OC(=O)/C=C\C(=O)O)C(C)(C)[C@@H]5CC[C@]43C)[C@@H]12 [Betulin 3,28-dimaleate, Betulin-3,28-dimaleate]	0	11.0	S. aureus,	effective	56	more effective	2.3 (≈ 1.47 µg/mL)	0	effective	S. aureus methicillin	0.282 (≈ 0.18 µg/mL)		
C=C(C)[C@@H]1CC[C@]2(COC(=O)c3ccccc3C(=O)O)CC[C@]3(C)[C@H](CC[C@@H]4[C@@]5(C)CC[C@H](OC(=O)c6ccccc6C(=O)O)C(C)(C)[C@@H]5CC[C@]43C)[C@@H]12 [Betulin 3,28-diphthalate, Betulin-3,28-diphthalate]	0	10.0	S. aureus	effective			2.3 (≈ 1.7 µg/mL)	0				sensitive	active against at least one strain of bacteria
